These results are taken from patent USH1996H, “Insecticidal photostable acid salt derivatives of N-benzyl-4-benzhydrolpiperidines” (FMC Corporation, priority 1998, dated 2001).

Each structure is given as a SMILES string. Structures can show the parent of a compound that is named as a salt.

Data set [1] in a line: photostability under Suntest CPS illuminator (filtered xenon lamp), HPLC. As to conditions: photodegradation of thin film on glass coverslips, simulated sunlight (xenon lamp), about 25 °C, 0-96 hours. The format is physicochemical. The method, then: Compounds of the present invention were subjected to determinations of their photostability in side-by-side tests with their non-ionic parent analogs. These photostability tests are conducted as follows:
For each compound tested, four glass microscope coverslips (12 mm in diameter) for each illumination period (0, 3, 6, 12, 24, 48, and 96 hours) are spotted with 10 microliters of a one mg/mL acetonitrile or methanol solution of test compound. The solutions are allowed to evaporate leaving a thin film of test compound on each coverslip. The four coverslips representing the zero hour illumination period are placed in a 20 mL scintillation vial. In the vile is placed one mL of acetonitrile, which extracts the test chemical from the coverslip. The solution is then transferred to a two dram vile for analysis by HPLC. The average HPLC peak area generated by this sample defines the initial level of test compound. The remaining coverslips are then placed in the water-cooled chamber of the exposure platform of a Suntest CPS illuminator (Heraeus Instruments GmbH; Bereich Original Hanau, Hersaeusstrasse R-14, Postfach 1563, D-6450 Hanau 1). The exposure platform is covered with a quartz plate and maintained at about 25° C. for the duration of the test. The Suntest CPS illuminator employs a filtered xenon lamp, which provides illumination of a similar spectrum and intensity as sunlight. Four coverslips for each test compound are removed from the illuminator at the end of each illumination period described above. The four coverslips from each of the illumination periods are treated as described above and the acetonitrile extract is analyzed by HPLC. The average HPLC peak area from each of the illumination periods represents a diminished amount of test compound when compared to the initial level of test compound as determined from the zero hour illumination sample. The percents of test compound remaining from each of these illumination periods are used to generate a degradation curve from which a half life in hours is determined for each test compound.

Data set [2] has as its system tobacco budworm (Heliothis virescens [Fabricius]). In words: insecticidal activity against tobacco budworm, treated artificial diet surface. In kind it is in vivo. As to conditions: 0.0025 millimoles on the surface of the diet; second instar larvae; five-day exposure; 7200 min. The method, then:
Candidate insecticides are evaluated for activity against tobacco budworm (Heliothis virescens [Fabricius]) by applications to the surface of a wheat germ-based artificial insect diet. Solutions of the candidate insecticides are prepared for testing by diluting a standard 50 millimolar DMSO solution of each candidate insecticide with DMSO, then further diluting with a 1:1 water/acetone solution (V/V). Forty microliters of this solution of calculated concentration is then pipetted onto the surface of the diet in each of six containers, to provide six replicates for each rate of application. Once treated, the contents of the containers are allowed to dry, leaving the calculated concentration ( in millimoles) of candidate insecticide on the surface of the diet. In each container is placed one second instar tobacco budworm […]. The container is sealed with a transparent film, and then held in a growth chamber for five days. After the five-day exposure period the insecticidal activity of the candidate insecticide is recorded as percent mortality when compared to the total number of insects infested. Insecticidal activity at a concentration of candidate insecticide of 0.0025 millimoles on the surface of the diet is given for various compounds of this invention in Table 4.

As to `CCn1nnc(-c2ccc(C[N+]3([O-])CCC(C(O)(c4ccc(C(F)(F)F)cc4)c4ccc(C(F)(F)F)cc4)CC3)cc2)n1` (centres unmarked) [B, N-[4-(2-ethyl-2H-tetrazol-5-yl)phenylmethyl]-4-[bis(4-trifluoromethylphenyl)hydroxymethyl]piperidine N-oxide, reference compound], the Half-life in data set [1] was 13.9 h.

Consider `CCn1nnc(-c2ccc(C[N+]3([O-])CCC(C(O)(c4ccc(C(F)(F)F)cc4)c4ccc(C(F)(F)F)cc4)CC3)cc2)n1` (centres unmarked) [Compound 33, N-[4-(2-ethyl-2H-tetrazol-5-yl)phenylmethyl]-4-[bis(4-trifluoro-methylphenyl)hydroxymethyl]piperidine N-oxide ethanesulfonic acid salt], for which the Half-life in data set [1] is 34.0 h.

`COC(=O)Nc1ccc(C[N+]2([O-])CCC(C(O)(c3ccc(OC(F)(F)F)cc3)c3ccc(OC(F)(F)F)cc3)CC2)cc1` (centres unmarked) [Compound 16]: the “Percent Mortality” value in data set [2] was determined as 100%.

Consider `CCn1nnc(-c2ccc(CN3CCC(C(O)(c4ccc(C(F)(F)F)cc4)c4ccc(C(F)(F)F)cc4)CC3)cc2)n1` [A, reference compound], for which the Half-life in data set [1] was 5.5 h.

For the compound `CCn1nnc(-c2ccc(CN3CCC(C(O)(c4ccc(C(F)(F)F)cc4)c4ccc(C(F)(F)F)cc4)CC3)cc2)n1` [Compound 7], the Half-life in data set [1] is 23.0 h.
